From patent publication US12319652B2, “Salts and solid forms of (R)-1-(5-methoxy-1H-indol-1-yl)-N,N-dimethylpropan-2-amine” (priority 2021, dated 2025)

How the values were obtained:
[1] = Qualitative solubility screen of Compound 1 HCl; format: physicochemical
Description: The qualitative solubility screen was carried out to determine the range of solvents incorporated into future suspension equilibration panels.
Products that crystallized were centrifuged and analyzed as wet pellet by XRPD, dried under reduced pressure and re-analyzed by XRPD, with selected samples further analyzed by TGA and ^1H NMR spectroscopy.

[2] = Suspension equilibration of Compound 1 HCl at 20 and 40° C.
Description: The purpose of this panel was to determine if Form A evolves into a supra-ordinate form, the companion panel at 40° C. set-point was in place to detect enantiotropic behavior via different relative proportions in different solvents.
All isolated products, both wet and dry were consistent with Form A at both temperatures.

[3] = Binary solvent evaporation crystallization of Compound 1 HCl
Description: A binary solvent evaporation crystallization panel was performed. Separate portions of Compound 1 HCl 50 mg) were dissolved in a primary solvent of water (500 μl per sample) and a secondary solvent—one of either acetone (250 μl, A), acetonitrile (250 μl, B), THF (250 μl, C) and methanol (250 μl, D).
Each vial was capped with aluminium foil, pieced and allowed to stand undisturbed until the evaporation was completed. Experimental details are included in Table 109.

[4] = Heat-up/cool down (HUCD) crystallization of compound 1 Fumarate in different solvents
[5] = Ethanol/Water (15% v/v, 0.5 aw), 5 vol
[6] = 2-Propanol 5.0 vol, panel at 40° C.
[7] = Acetone 5.0 vol, equilibration at 20° C.
[8] = Acetone 5.0 vol, panel at 40° C.
[9] = Acetone/Water (5% v/v, 0.5 aw) 5.0 vol, equilibration at 20° C.
[10] = Acetonitrile 5.0 vol, panel at 40° C.
[11] = Chlorobenzene 5.0 vol, equilibration at 20° C.
[12] = Chlorobenzene 5.0 vol, panel at 40° C.
[13] = DCM 5.0 vol, equilibration at 20° C.
[14] = EtOAc 5.0 vol, equilibration at 20° C.
[15] = EtOH 5.0 vol, equilibration at 20° C.
[16] = Ethanol 5.0 vol, panel at 40° C.
[17] = Ethyl acetate 5.0 vol, panel at 40° C.
[18] = Ethyl formate 5.0 vol, equilibration at 20° C.
[19] = Ethyl formate 5.0 vol, panel at 40° C.
[20] = Heptane 5.0 vol, equilibration at 20° C.
[21] = Heptane 5.0 vol, panel at 40° C.
[22] = Isopropanol/Water (12% v/v, 0.5 aw) 5.0 vol, equilibration at 20° C.
[23] = Isopropyl acetate 5.0 vol, equilibration at 20° C.
[24] = Isopropyl acetate 5.0 vol, panel at 40° C.
[25] = MEK 5.0 vol, equilibration at 20° C.
[26] = MeCN 5.0 vol, equilibration at 20° C.
[27] = MeOH 5.0 vol, equilibration at 20° C.
[28] = Methanol 5.0 vol, panel at 40° C.
[29] = Methyl acetate 5.0 vol, equilibration at 20° C.
[30] = Methyl acetate 5.0 vol, panel at 40° C.
[31] = Nitromethane 5.0 vol, panel at 40° C.
[32] = TBME 5.0 vol, equilibration at 20° C.
[33] = Toluene 5.0 vol, panel at 40° C.
[34] = Water 5.0 vol, equilibration at 20° C.

COc1ccc2c(ccn2C[C@@H](C)N(C)C)c1.Cl [Compound 1 HCl]
readily soluble: Qualitative solubility ([1]; polar solvents and solvents with high water activity)
Form A: XRPD (dried pellet) ([1]; 2-Propanol) | XRPD (dried pellet) ([1]; Acetone) | XRPD (moist pellet) ([1]; Acetone) | XRPD (dried pellet) ([1]; Chlorobenzene) | XRPD (moist pellet) ([1]; DCM) | XRPD (moist pellet) ([1]; EtOAc) | XRPD (dried pellet) ([1]; EtOH) | XRPD (moist pellet) ([1]; EtOH) | XRPD (moist pellet) ([1]; Ethyl formate) | XRPD (moist pellet) ([1]; Heptane) | XRPD (dried pellet) ([1]; MEK) | XRPD (moist pellet) ([1]; MeCN) | XRPD (dried pellet) ([1]; MeTHF) | XRPD (dried pellet) ([1]; Methyl acetate) | XRPD (dried pellet) ([1]; Nitromethane) | XRPD (moist pellet) ([1]; TBME) | XRPD (dried pellet) ([1]; Toluene)
Solid: Observations (t = 14 days @ ambient) ([3]; A: Water 10.0 vol + Acetone 250 μL) | Observations (t = 14 days @ ambient) ([3]; B: Water 10.0 vol + Acetonitrile 250 μL) | Observations (t = 14 days @ ambient) ([3]; C: Water 10.0 vol + THF 250 μL) | Observations (t = 14 days @ ambient) ([3]; D: Water 10.0 vol + Methanol 250 μL)
Pink paste: Observations (t = 10 d @ 20° C.) [2, 9] | Observations (t = 10 d @ 20° C.) [2, 13] | Observations (t = 10 d @ 20° C.) [2, 15]
Partial: Observations (t = 1 d @ 20° C.) [2, 22]
White paste: Observations (t = 10 d @ 20° C.) [2, 14]
Orange susp.: Observations (t = 10 d @ 20° C.) ([2]; Water 5.0 vol, panel at 40° C.)
Solution: XRPD (moist pellet) ([1]; Acetone/Water (5% v/v, 0.5 aw)) | XRPD (moist pellet) ([1]; Ethanol/Water (15% v/v, 0.5 aw)) | XRPD (moist pellet) ([1]; Isopropanol/Water (12%, v/v, 0.5 aw)) | XRPD (moist pellet) ([1]; MeOH) | XRPD (moist pellet) ([1]; Water) | Observations (t = 0 @ 20° C.) [2, 34] | Observations (t = 1 d @ 20° C.) [2, 34] | Observations (t = 0 @ 20° C.) ([2]; Water 5.0 vol, panel at 40° C.)
soluble: Qualitative solubility ([1]; polar and aqueous solvents at temperature, panel of 22 solvents)
Paste: XRPD (moist pellet) ([1]; 2-Propanol) | XRPD (moist pellet) ([1]; Chlorobenzene) | XRPD (moist pellet) ([1]; MEK) | XRPD (moist pellet) ([1]; MeTHF) | XRPD (moist pellet) ([1]; Methyl acetate) | XRPD (moist pellet) ([1]; Nitromethane) | XRPD (moist pellet) ([1]; Toluene)
Suspension: Observations (t = 0 @ 20° C.) ([2]; 2-Propanol 5.0 vol, equilibration at 20° C.) | Observations (t = 0 @ 20° C.) [2, 6] | Observations (t = 1 d @ 20° C.) [2, 6] | Observations (t = 0 @ 20° C.) [2, 7] | Observations (t = 1 d @ 20° C.) [2, 7] | Observations (t = 0 @ 20° C.) [2, 8] | Observations (t = 1 d @ 20° C.) [2, 8] | Observations (t = 0 @ 20° C.) [2, 9] | Observations (t = 1 d @ 20° C.) [2, 9] | Observations (t = 0 @ 20° C.) ([2]; Acetone/Water (5% v/v, 0.5 aw) 5.0 vol, panel at 40° C.) | Observations (t = 0 @ 20° C.) [2, 10] | Observations (t = 1 d @ 20° C.) [2, 10] | Observations (t = 0 @ 20° C.) [2, 11] | Observations (t = 1 d @ 20° C.) [2, 11] | Observations (t = 0 @ 20° C.) [2, 12] | Observations (t = 1 d @ 20° C.) [2, 12] | Observations (t = 0 @ 20° C.) [2, 13] | Observations (t = 1 d @ 20° C.) [2, 13] | Observations (t = 0 @ 20° C.) ([2]; DCM 5.0 vol, panel at 40° C.) | Observations (t = 1 d @ 20° C.) ([2]; DCM 5.0 vol, panel at 40° C.) | Observations (t = 0 @ 20° C.) [2, 14] | Observations (t = 1 d @ 20° C.) [2, 14] | Observations (t = 0 @ 20° C.) [2, 15] | Observations (t = 1 d @ 20° C.) [2, 15] | Observations (t = 0 @ 20° C.) [2, 16] | Observations (t = 1 d @ 20° C.) [2, 16] | Observations (t = 0 @ 20° C.) ([2]; Ethanol/Water (15% v/v, 0.5 aw) 5.0 vol, equilibration at 20° C.) | Observations (t = 0 @ 20° C.) [2, 17] | Observations (t = 1 d @ 20° C.) [2, 17] | Observations (t = 0 @ 20° C.) [2, 18] | Observations (t = 1 d @ 20° C.) [2, 18] | Observations (t = 0 @ 20° C.) [2, 19] | Observations (t = 1 d @ 20° C.) [2, 19] | Observations (t = 0 @ 20° C.) [2, 20] | Observations (t = 1 d @ 20° C.) [2, 20] | Observations (t = 0 @ 20° C.) [2, 21] | Observations (t = 1 d @ 20° C.) [2, 21] | Observations (t = 0 @ 20° C.) [2, 22] | Observations (t = 0 @ 20° C.) ([2]; Isopropanol/Water (12% v/v, 0.5 aw) 5.0 vol, panel at 40° C.) | Observations (t = 0 @ 20° C.) [2, 23] | Observations (t = 1 d @ 20° C.) [2, 23] | Observations (t = 0 @ 20° C.) [2, 24] | Observations (t = 1 d @ 20° C.) [2, 24] | Observations (t = 0 @ 20° C.) [2, 25] | Observations (t = 1 d @ 20° C.) [2, 25] | Observations (t = 0 @ 20° C.) ([2]; MEK 5.0 vol, panel at 40° C.) | Observations (t = 1 d @ 20° C.) ([2]; MEK 5.0 vol, panel at 40° C.) | Observations (t = 0 @ 20° C.) [2, 26] | Observations (t = 1 d @ 20° C.) [2, 26] | Observations (t = 0 @ 20° C.) [2, 27] | Observations (t = 1 d @ 20° C.) [2, 27] | Observations (t = 0 @ 20° C.) ([2]; MeTHE 5.0 vol, equilibration at 20° C.) | Observations (t = 0 @ 20° C.) ([2]; MeTHF 5.0 vol, panel at 40° C.) | Observations (t = 1 d @ 20° C.) ([2]; MeTHF 5.0 vol, panel at 40° C.) | Observations (t = 0 @ 20° C.) [2, 28] | Observations (t = 1 d @ 20° C.) [2, 28] | Observations (t = 0 @ 20° C.) [2, 29] | Observations (t = 1 d @ 20° C.) [2, 29] | Observations (t = 0 @ 20° C.) [2, 30] | Observations (t = 1 d @ 20° C.) [2, 30] | Observations (t = 0 @ 20° C.) ([2]; Nitromethane 5.0 vol, equilibration at 20° C.) | Observations (t = 0 @ 20° C.) [2, 31] | Observations (t = 1 d @ 20° C.) [2, 31] | Observations (t = 0 @ 20° C.) [2, 32] | Observations (t = 1 d @ 20° C.) [2, 32] | Observations (t = 0 @ 20° C.) ([2]; THF 5.0 vol, equilibration at 20° C.) | Observations (t = 0 @ 20° C.) ([2]; THF 5.0 vol, panel at 40° C.) | Observations (t = 1 d @ 20° C.) ([2]; THF 5.0 vol, panel at 40° C.) | Observations (t = 0 @ 20° C.) ([2]; Toluene 5.0 vol, equilibration at 20° C.) | Observations (t = 0 @ 20° C.) [2, 33] | Observations (t = 1 d @ 20° C.) [2, 33] | Observations (t = 0 @ 20° C.) ([2]; tBME 5.0 vol, panel at 40° C.) | Observations (t = 1 d @ 20° C.) ([2]; tBME 5.0 vol, panel at 40° C.)
White Paste: Observations (t = 10 d @ 20° C.) [2, 7] | Observations (t = 10 d @ 20° C.) [2, 26] | Observations (t = 10 d @ 20° C.) [2, 32]
Yellow susp.: Observations (t = 10 d @ 20° C.) [2, 8]
✓: Solid on cooling? ([1]; 2-Propanol, 10 vol) | Solution at reflux ([1]; 2-Propanol, 10 vol) | Solution at reflux ([1]; 2-Propanol, 15 vol) | Solid on cooling ([1]; Acetone/Water (5% v/v, 0.5 aw), 5 vol) | Solution at reflux ([1]; Acetone/Water (5% v/v, 0.5 aw), 10 vol) | Solid on cooling ([1]; EtOH, 15 vol) | Solid on cooling ([1]; EtOH, 20 vol) | Solid on cooling [1, 5] | Solution at reflux [1, 5] | Solution at 20° C. ([1]; Ethanol/Water (15% v/v, 0.5 aw), 10 vol) | Solid on cooling ([1]; Isopropanol/Water (12%, v/v, 0.5 aw), 5 vol) | Solution at reflux ([1]; Isopropanol/Water (12%, v/v, 0.5 aw), 10 vol) | Solid on cooling ([1]; MeCN, 15 vol) | Solid on cooling ([1]; MeCN, 20 vol) | Solution at reflux ([1]; MeOH, 10 vol) | Solid on cooling? ([1]; Nitromethane, 10 vol) | Solution at 40° C. ([1]; Nitromethane, 15 vol) | Solution at reflux ([1]; Nitromethane, 15 vol) | Solution at 20° C. ([1]; Water, 5 vol)

COc1ccc2c(ccn2C[C@@H](C)[NH+](C)C)c1.O=C(O)/C=C/C(=O)O [Compound 1 fumarate, (R)-1-(5-methoxy-1H-indol-1-yl)-N,N-dimethylpropan-2-amine fumarate]
suspension: Observations (t = 3 d @ 20° C.) ([4]; Heptane (5 vol) + Ethanol 180 μl) | Observations (t = 0 @ T = 20° C.) ([4]; Heptane (5 vol) + Methylethyl ketone 100 μl)
solution: Observations (t = 3 d @ 20° C.) ([4]; Water (5 vol) + Ethanol 80 μl)
Pattern 1: Form XRPD (oven dried) ([4]; Heptane (5 vol) + Dichloromethane 160 μl) | Form XRPD (oven dried) ([4]; Heptane (5 vol) + Dioxane 240 μl) | Form XRPD (oven dried) ([4]; Heptane (5 vol) + tert-Butylmethyl ether 300 μl)
